Reference: US10390536B2, “Methods, compounds and compositions for repelling insects and/or arachnids” (National Center for Scientific Research “Demokritos”, priority 2013, dated 2019)
Like-named read-outs stand apart in the source and are kept apart here.

Columns and labels:
[1] = test system: female A. gambiae antennae; experiment: GC-coupled electroantennogram (GC-EAG) recording; parameters: species or system Anopheles gambiae; settings: compounds eluting from GC of essential oils
Source text: Electrophysiological recordings from whole mosquito antenna: Coupling EAG recordings from an A. gambiae antenna to the effluent of a high-resolution gas chromatographic (GC) column permitted the determination of the elution profiles of biologically active components of essential oils showing repellence. Recordings were made from to 4-9 day-old female mosquitoes. The head was excised at the occipital opening and placed on the reference glass electrode containing Hayes mosquito Ringer [Hayes (1953). Determination of a physiological saline for Aedes aegypti (L.). J Econ Entomol 46: 624-627] mounted in a humidified air-stream (90-98% RH; Guerin and Visser (1980). Electroantennogram Responses of the Carrot Fly, Psila rosae, to Volatile Plant Components. Physiological Entomology 5(2): 111-119] and its antenna exposed to compounds eluting from the GC column (Biessamann et al. (2010). The Anopheles gambiae odorant binding protein 1 (AgamOBP1) mediates indole recognition in the antennae of female mosquitoes. PLoS One 5(3): e9471]. The EAG response was recorded via a glass electrode filled with Kaissling sensillum lymph Ringer [Kaissling (1995). Single unit and electroantennogram recordings in insect olfactory organs. In Experimental Cell Biology of Taste and Olfaction. Current Techniques and Protocols, Spielman AlaB, J. G. (ed), 361-386. Boca Raton, Fla.: CRC Press] brought into contact with the terminal antennal segment whose tip was cut off. Only antennae showing an EAG response at least double the noise level to a 1 ml puff of air over 1 μg geranylacetone in a 5 ml stimulus syringe were used for recording EAG responses to the essential oils.
To conduct a GC-EAG analysis, about 2 μg of an essential oil was injected in 1-3 μL of dichloromethane (DCM) onto an apolar capillary column (95% dimethyl polysiloxan with 5% diphenyl polysiloxan, 15 m long, 0.25 mm i.d., 0.10 μm film thickness; BGB Analytik, Switzerland) installed in a 5300 Carlo Erba Instruments chromatograph. Hydrogen was used as carrier gas with the oven held at 40° C. for 3 minutes then heated up 25° C./min to 230° C. and held at the final temperature for 15 min. The column effluent was split (50:50) between the flame ionization detector (FID) of the chromatograph and the mosquito antennal preparation. The EAG signal was fed into an AC/DC amplifier (×100) via a high impedance preamplifier (×10), recorded on the hard disk of a PC via a 16-bit analogue-digital IDAC4 interface (Syntech, Netherlands) and monitored simultaneously with an oscilloscope (Tektronix 5103, USA). Kovats retention indices (KIs) were calculated for the EAG-active compounds present in the extracts and fractions. FIG. 1 illustrates the results obtained using the GC-EAG analysis. […]

[2] = test system: Anopheles gambiae (Giles) ss strain 16CSS female mosquitoes; experiment: warm body repellence assay (mosquito landings); format: in vivo; settings: for repellent activity in the warm body assay (in words): candidate compounds, initially 1.0-5.0 μg/cm^2 (about 5-31.5 nmole/cm^2); for median repellency (%) at 20 nmol/cm2: read-out: Median Repellency (%)
Procedure: To test the behavior of female mosquitoes to an essential oil containing OBP binding components, a previously described repellence assay [Kröber et al. (2010). An In Vitro Assay for Testing Mosquito Repellents Employing a Warm Body and Carbon Dioxide as a Behavioral Activator. Journal of the American Mosquito Control Association 26(4) 381-386] was conducted that measures the number of mosquito landings on a warm surface onto which an essential oil containing at least one candidate compound was applied.
To conduct a repellency assay, a selected essential oil or ethanol negative control was applied to a warm body at a dose of about 3.8 μg/cm^2 and allowed to dry for 40 seconds in order to allow evaporation of the solvent before introduction into the test cage with mosquitoes. As positive control for repellence, DEET dissolved in ethanol was applied to the warm body at the same dose. The treated warm body in conjunction with a pulse of carbon dioxide was introduced into the test cage containing fifty Anopheles gambiae (Giles) ss strain 16CSS female mosquitoes that were 4-11 days old and the number of mosquito landings on the warm body occurring within a 2-minute period was counted. Each candidate compound was tested in five different cages (i.e., 250 female mosquitoes) in a randomized design, and the ethanol control and up to four candidate compounds were tested in each cage. Raw data on numbers of landings by mosquitoes were analyzed using a linear mixed model accounting for treatment, experimental day, the individual cage, the number of females per cage and the level of the carbon dioxide pulse in ppm using R (R Development Core Team, 2010) and the packages LME4 (Bates and Maechler, Ime4: Linear mixed-effects models using {S4} classes.{R} package version 0.999375-32, 2009) and NLME (Pinheiro et al, nlme: Linear and Nonlinear Mixed Effects Models, 2010; the R Development Core Team, R: A Language and Environment for Statistical Computing, 2010). Repellent values were calculated from counted landings on treatments versus the overall landings on pooled controls.
To test the behavior of female mosquitoes to a candidate compound identified in Example 5, behavioral assays were made using the identified compounds. The repellent assay was performed as described in Example 3, except that candidate compounds were dissolved in ethanol and tested initially at doses between 1.0 and 5.0 μg/cm^2 (about 5-31.5 nmole/cm^2) and, whenever necessary, at lower and/or higher doses as well. Besides the compounds identified in Example 5, compounds related to these were also tested including ethyl-cinnamate and butyl-cinnamate (Table 4).
To test the behavior of female mosquitoes to various combinations of candidate compounds identified in Example 6, repellence assays were made as in Example 3. These repellent assays were made to compare the effectiveness of the strongest repellent compounds identified in Example 6, including, without limitation, carvacrol, ethyl cinnamate, butyl cinnamate, and cumin alcohol with that of DEET.
The doses tested were 2, 4, 6 10 and 20 nmol/cm^2 for the single compounds. The binary 50:50 mixtures were tested at 2, 6, 10 and 20 nmol/cm^2, with each compound making up half the amount tested, so that, for example, the 2 nmol/cm^2 concentration in column A+B represents 1 nmol/cm^2 of A and 1 nmol/cm^2 of B in a binary mixture. DEET was also tested at 25 nmol (top response) and carvacrol was tested at the additional dose of 2.5 nmol (second from left within its column). As an indication, DEET at 20 nmol/cm^2=3.8 μg/cm^2. Mosquitoes were activated using a puff of CO2 from a gas tank upon introduction of the warm body into the test cage containing 50±5 A. gambiae females and mosquito landings were counted for 2 minutes. Each treatment (dose) was tested using five test cages, i.e. on a total of 250 female A. gambiae. […]

[3] = test system: sand fly Lutzomyia longipalpis; experiment: warm body repellence assay with sand flies; format: in vivo; settings: for Median of landings: 2 minutes, control 48
Procedure: To test the effects of repellent compounds or compositions disclosed herein on other blood-feeding arthropods, a warm body repellence assay (Krober et. al. (2010). An In Vitro Assay for Testing Mosquito Repellents Employing a Warm Body and Carbon Dioxide as a Behavioral Activator. Journal of the American Mosquito Control Association 26(4): 381-386] was conducted using the sand fly Lutzomyia longipalpis (Diptera: Psychodidae), the principal vector of Leishmania (or leismaniasis) in the Americas.
[…] Fifty L. longipalpis sandflies (male:female ratio 1:1) of 3-7 days old were tested during the scotophase under conditions described for A. gambiae in Example 6. The test cages were lined with filter paper. Reduction in the number of landings by L. longipalpis sand fly females on a warm body treated with different test products compared to the control with solvent (ethanol p.a.) alone was used to evaluate repellence. Tests were conducted in complete darkness using IR LEDs to illuminate the warm body. Landings counted during 2 minutes were normalized by experimental day, cage, and number of females by a mixed linear model before testing for differences.

[4] = Anopheles gambiae, 2 min, 20 nmole per cm^2

| Molecule | EAG response of antenna [1] | repellent activity in the warm body assay (in words) [2] | other results |
| --- | --- | --- | --- |
| CC(C)=C1CCC(C)(O)CC1 (centres unmarked) [γ-terpineol] | capable of triggering EAG responses | – | – |
| C=C(C)C1CC=C(C)C(=O)C1 (single isomer, unassigned; (+)) [(+) carvone, carvone] | – | only weak or no repellent activity at all | – |
| C=CC(C)(O)CCC=C(C)C (centres unmarked) [linalool] | capable of triggering EAG responses | properties suggesting attractant activity | – |
| COC(=O)C=Cc1ccccc1 [methyl-trans-cinnamate, methyl 3-phenylprop-2-enoate] | capable of triggering EAG responses | only weak or no repellent activity at all | median repellency (%) at 20 nmol/cm2 [2, 4]: 14% |
| C=C1CC/C=C(\C)CC[C@@H]2[C@@H]1CC2(C)C [β-caryophyllene] | capable of triggering EAG responses | only weak or no repellent activity at all | – |
| C=C(C)[C@@H]1CC=C(C)C(=O)C1 [(−) carvone, carvone] | – | only weak or no repellent activity at all | – |
| CC(C)c1ccc(C=O)cc1 [cumin aldehyde] | capable of triggering EAG responses | only weak or no repellent activity at all | median repellency (%) at 20 nmol/cm2 ([2]; Anopheles gambiae, 2 min): 13.5% |
| Cc1ccc(C(C)C)cc1 [p-cymene] | capable of triggering EAG responses | properties suggesting attractant activity | – |
| CC1=CCC(C(C)C)=CC1 [γ-terpinene] | – | only weak or no repellent activity at all | – |
| limonene [(−) limonene] | – | only weak or no repellent activity at all | – |
| C=C(C)[C@H]1CC=C(C)CC1 [(+) limonene, limonene] | – | only weak or no repellent activity at all | – |
| Cc1ccc(C(C)C)c(O)c1 [thymol, 2-Isopropyl-5-methylphenol] | – | activity comparable to DEET | median repellency (%) at 31.5 nmol/cm2 ([2]; Anopheles gambiae, 2 min, 31.5 nmole per cm^2): 89.7% |
| CC1=CCC2CC1C2(C)C (stereo not drawn) [α-pinene] | capable of triggering EAG responses | only weak or no repellent activity at all | – |
| C=C1CCC2CC1C2(C)C (stereo not drawn) [β-pinene] | capable of triggering EAG responses | only weak or no repellent activity at all | – |
| CC1=C(C=O)C(C)(C)CC=C1 [safranal] | capable of triggering EAG responses | only weak or no repellent activity at all | – |
| CC(C)c1ccc(C(=O)O)cc1 [cuminic acid] | capable of triggering EAG responses | activity comparable to DEET | median repellency (%) at 20 nmol/cm2 [2, 4]: 74.2%; Median of landings ([3]; 20 nmol/cm^2): 16; Median of landings ([3]; 200 nmol/cm^2): 13; repellence of sand flies from the warm body (in words) ([3]; 20 and 200 nmol/cm^2): as effective as DEET at 20 nmol/cm^2 |
